Laboratory results from US8278263B2, “Method of regulating mammalian target-of-rapamycin activity by interaction between phospholipase D and raptor” (Postech Academy-Industry Foundation, priority 2006, dated 2012).

What was measured:
S6K1 = test system: S6K1
Procedure: Until now, the function of PLD2 in nutrient signaling has not been proposed. To this end, the importance of PLD2 in nutrient signaling was tested. […] PLD2^wt was transfected and allowed to express for 24 hr.

mTOR-raptor interaction = assay: Co-IP analysis of the mTOR-raptor interaction; format: cell-based, monkey; details: COS7 cells
S6K1 phosphorylation = assay: Exogenous PA rescue of mTOR signaling in PLD knocked-down cells (SDS-PAGE/western blot); format: cell-based, human; monkey
Procedure: Next, another experiment was conducted to test whether exogenous PA can rescue mTOR signal abrogation in PLD2-knocked-down cells. HEK293 and COS7 cells were transfected with the indicated siRNAs using lipofectamine. After 36 hrs, cells were deprived of serum for 24 hrs. 100 μM of C-6 PA solubilized in DW was then treated for 30 min. Resulting lysates were subject to SDS-PAGE.
The inventor reasoned that if the role of PLD2 in mTOR activation is solely that of PA generation, then the exogenous addition of PA should completely rescue mTOR signaling despite PLD2 expression.

[1] = test system: binding between PLD2 and raptor; assay: Co-IP of HA-raptor/PLD2 in HEK293 cells after leucine treatment; format: cell-based, human; details: HA-raptorwt/PLD2wt transfected HEK293 cells; leucine treatment after leucine deprivation
Procedure: (§1) After harvesting COS7 cells, total extracts were prepared by brief sonication in ice-cold lysis buffer (40 mM HEPES pH7.5, 120 mM NaCl, 1 mM EDTA, 10 mM pyrophosphate, 10 mM glycerophosphate, 50 mM NaF, 1.5 mM Na3VO4, 0.5% CHAPS, 1 mM PMSF, protease inhibitor cocktails). Clarified extracts were mixed with 2 μg of the respective antibodies. Then protein A-Sepharose beads were added to isolate the antibody complex. After four washings with lysis buffer, the final immunoprecipitates were washed once with wash buffer (50 mM HEPES pH7.5, 150 mM NaCl), and then subjected to SDS-PAGE using Hyperfilm (Amersham Pharmacia Biotech), nitrocellulose membranes (Watmann), Power supply (Amersham Pharmacia Biotech), Electrophoretic Transfer unit (Hoefer Scientific Instruments), and ECL™ (Amersham Pharmacia Biotech).
Either HA-raptor^wt/PLD2^wt was transfected into HEK293 cells, and the cells were subjected to leucine deprivation. Co-IP after leucine treatment was followed by Western blot analysis. Importantly, the interaction between Rheb and PLD2 was also regulated by nutrient levels such that this interaction was stabilized under high nutrient conditions and weakened under low nutrient conditions, which allowed a nutrient-dependent mTOR complex composed of mTOR, raptor, PLD2, and Rheb to be identified.

[2] = test system: interaction between PLD2 and mTOR; assay: Co-IP with anti-mTOR antibody of PLD2 and mTOR complex; format: cell-based, human; monkey
Procedure: as §1

PLD2 = target: T1, PLD2 (Homo sapiens, UniProt O14939); assay: In vivo PLD assay (PBt formation) in response to nutrient levels; format: cell-based; details: PLD2wt transfected cells; leucine-free vs leucine-added media; 0.4% 1-butanol
T1 construct: showing a schematic view of PLD2 N-terminal deleted fragments versus whole PLD2; expressed in transfected cells
Procedure: In vivo PLD activity was assayed by measuring the formation of phosphatidyl-butanol as described in “Lee, J. S., Kim, J. H., Jang, I. H., Kim, H. S., Han, J. M., Kazlauskas, A., Yagaisawa, H., Suh, P. G., Ryu, S. H. J. Cell Sci. 118 (2005) 4405,” which is hereby incorporated by reference. In brief, cells were loaded with [^3H]myristic acid (2 μCi/ml) for 8 hrs and then washed twice with DMEM. Labeled cells were incubated with 0.4% butanol for 10 min to measure basal PLD activity. Total lipids were extracted with 1.2 ml of methanol:1 M NaCl:chloroform (1:1:1 by volume) and then separated by thin-layer chromatography on silica gel plates. The amount of [^3H]phosphatidyl-butanol formed was expressed as a percentage of total [^3H]lipid to account for cell labeling efficiency differences.

[3] = test system: phosphorylations of S6K1 and 4EBP1; assay: Phosphorylation of S6K1 and 4EBP1 after isozyme-specific PLD siRNA knockdown (western blot); format: cell-based, human; monkey
Source text: Pairs of 21-nucleotide sense and antisense RNA oligomers were synthesized and annealed by Dharmacon Research, Inc. (Lafayette, Colo.). The oligonucleotides used for PLD2 were: sense, 5′-AAGAGGUGGCUGGUGGUGAAG-3′ (SEQ ID NO: 9) and antisense, 5′-CUUCACCACCAGCCACCUCUU-3′ (SEQ ID NO: 10), which correspond to human PLD2 coding nucleotides 703-723. The oligonucleotides used for PLD1 were: sense, 5′-AAGGUGGGACGACAAUGAGCA-3′ (SEQ ID NO: 11), and antisense, 5′-UGCUCAUUGUCGUCCCACCUU-3′ (SEQ ID NO: 12), which correspond to human PLD1a coding nucleotides 1455-1475. All siRNA sequences were subjected to BLAST in the NCBI database and complete matches were only found for PLD2 sequences. Luciferase GL2 duplex was purchased from Dharmacon Research, Inc. and was used as a negative control. For add-back experiment for PLD2 silencing, three residues of human PLD2 cDNA (nucleotides 703-723 of PLD2; […]; SEQ ID NO: 13) are substituted to […] for addback mutants of PLD2^wt (Kim, J. H., Kim, J. H., Ohba, M., Suh, P. G., Ryu, S. H. Mol. Cell. Biol. 25 (2005) 3194, which is hereby incorporated by reference). This mutation is silencing mutations. This gene is subcloned into mammalian expression vector pcDNA3.1 (Invitrogen) and digested with restriction enzymes KpnI and XbaI. These mutations are confirmed through nucleotide sequence analysis. […]

phosphorylation of S6K1 = assay: Mitogen-dependent phosphorylation of S6K1 in siRNA-transfected COS7 cells; format: cell-based, monkey; details: siRNA knockdown, 20% BCS
Procedure: The indicated siRNAs were transfected into COS7 cells, and 36 hrs later, cells were deprived of serum for 24 hrs. 20% of BCS was then treated and the resulting lysates were subjected to SDS-PAGE.

T1 sequence (O14939 whole entry R172C/T577I, the tested form may be a part): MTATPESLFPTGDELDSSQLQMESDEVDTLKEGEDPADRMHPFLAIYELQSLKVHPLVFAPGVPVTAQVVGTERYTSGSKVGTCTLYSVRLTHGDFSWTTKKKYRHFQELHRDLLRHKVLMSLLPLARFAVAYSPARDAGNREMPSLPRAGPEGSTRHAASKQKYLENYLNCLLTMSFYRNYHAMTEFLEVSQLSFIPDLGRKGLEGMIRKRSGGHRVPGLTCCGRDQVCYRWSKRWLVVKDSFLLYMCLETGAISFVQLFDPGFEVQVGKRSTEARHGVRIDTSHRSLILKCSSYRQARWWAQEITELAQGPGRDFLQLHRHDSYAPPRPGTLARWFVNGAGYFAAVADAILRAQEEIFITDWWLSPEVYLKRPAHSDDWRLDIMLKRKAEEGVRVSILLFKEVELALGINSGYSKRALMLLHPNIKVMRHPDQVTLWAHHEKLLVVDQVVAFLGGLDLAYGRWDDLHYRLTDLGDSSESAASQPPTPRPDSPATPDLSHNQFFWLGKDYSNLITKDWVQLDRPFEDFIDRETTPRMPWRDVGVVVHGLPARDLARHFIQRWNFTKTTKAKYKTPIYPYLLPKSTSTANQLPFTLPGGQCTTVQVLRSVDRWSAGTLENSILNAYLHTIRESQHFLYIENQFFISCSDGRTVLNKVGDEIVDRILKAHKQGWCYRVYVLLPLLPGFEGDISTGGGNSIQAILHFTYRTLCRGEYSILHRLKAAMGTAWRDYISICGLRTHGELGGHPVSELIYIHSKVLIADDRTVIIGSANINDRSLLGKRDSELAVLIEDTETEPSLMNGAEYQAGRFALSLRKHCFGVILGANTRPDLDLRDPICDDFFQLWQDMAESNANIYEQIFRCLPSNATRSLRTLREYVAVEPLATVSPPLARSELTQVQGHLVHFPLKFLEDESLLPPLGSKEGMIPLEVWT

1-butanol
stimulatory effect of leucine on S6K1 (S6K1): significantly reduced
modulation of the mTOR-raptor interaction (mTOR-raptor interaction): neither reducing PA generation with 1-butanol nor adding PA modulates

CCCCCC(=O)OC[C@H](COP(=O)(O)O)OC(=O)CCCCC [PA, C-6 phosphatidic acid]
rescue of silencing effect of PLD1 on mTOR signaling (S6K1 phosphorylation; PLD1 silencing, PA treatment): completely rescued
S6K1 phosphorylation triggered by exogenous PA (S6K1 phosphorylation; PLD2-knocked-down HEK293 and COS7 cells, 100 μM C-6 PA, 30 min): could not trigger S6K1 phosphorylation
rescue of PLD2 effect on mTOR signaling (S6K1 phosphorylation; PLD2 silencing, exogenous PA treatment): not rescued
modulation of the mTOR-raptor interaction (mTOR-raptor interaction): neither reducing PA generation with 1-butanol nor adding PA modulates

CC(C)C[C@H](N)C(=O)O [leucine]
binding between PLD2 and raptor [1]: enhanced binding
interaction between endogenous PLD2 and endogenous mTOR complex ([2]; leucine treatment in leucine-deprived COS7 and HEK293 cells): increased
PLD2 activity (PBt formation) (PLD2): reversibly regulated

CO[C@H]1C[C@@H]2CC[C@@H](C)[C@@](O)(O2)C(=O)C(=O)N2CCCC[C@H]2C(=O)O[C@H]([C@H](C)C[C@@H]2CC[C@@H](O)[C@H](OC)C2)CC(=O)[C@H](C)/C=C(\C)[C@@H](O)[C@@H](OC)C(=O)[C@H](C)C[C@H](C)/C=C/C=C/C=C/1C [rapamycin]
effect on the interaction between PLD2 and mTOR ([2]; mTOR inhibition by rapamycin): no effect

PLD1 siRNA: 21-nt siRNA duplex SEQ ID NO: 11/12, human PLD1a coding nucleotides 1455-1475 (chain 1 AAGGUGGGACGACAAUGAGCA; chain 2 UGCUCAUUGUCGUCCCACCUU; RNA, backbone not given here)
silencing effect on mTOR signaling ([3]; siRNA silencing): modest
mitogen-dependent phosphorylation of S6K1 (phosphorylation of S6K1): only a modest effect

PLD2 siRNA: 21-nt siRNA duplex SEQ ID NO: 9/10, human PLD2 coding nucleotides 703-723 (chain 1 AAGAGGUGGCUGGUGGUGAAG; chain 2 CUUCACCACCAGCCACCUCUU; RNA, backbone not given here)
phosphorylations of S6K1 and 4EBP1 ([3]; siRNA knockdown, HEK293, OVCAR-3 and COS7 cells, serum-deprived 24 hrs, compared with PLD1 knockdown): dramatically reduced
mitogen-dependent phosphorylation of S6K1 (phosphorylation of S6K1): profoundly reduced
